One data set relates to mice. To be noted: mouse, in vivo. From the text:
Intraperitoneal injections of water-soluble chemicals were given in normal saline (0.9% sodium chloride).

Another data set has as its system NOD mouse. The experiment in a line: Rate of type 1 diabetes and final blood glucose in treated female NOD/ShiLtJ mice. In kind it is in vivo. The following applies: 20 μmol/kg IP in saline until age 58-61 days; age 34 weeks. As for the experimental part: Mouse care: NOD/ShiLtJ mice were from The Jackson Laboratory (Bar Harbor, ME, USA). Mice were housed under standard conditions (20-24° C., humidity 30-70%, lighting regimen 12 h light/12 h dark) in the University of Wisconsin Biomedical Research Model Service that is a specific pathogen free level 1 facility. […] Mice had access to acidified water or water containing a chemical and/or green tea ad libitum. All procedures were approved by the Research Animal Resources and Compliance veterinary care authority of the University of Wisconsin, Madison.
Mouse treatments: Mice were given chemicals by intraperitoneal injection and/or by gavage and/or in drinking water. Water-soluble chemicals were administered in a solution of sodium chloride adjusted to have a final osmolality of 0.5-0.9%. Lipid soluble chemicals were dissolved in olive oil, peanut oil, corn oil, Mazola® oil or canola oil.
Starting at age 2 to 5 days mice were given injections on every third or fourth day for 2 to 4 weeks (usually 2 to 2.5 weeks) for the first 4 or 6 injections, and thereafter twice per week on Mondays and Thursdays until up to age 100 days. In some instances, pregnant and nursing mice were given chemicals in drinking water starting at about the middle or late pregnancy continuing during nursing and also continuing for various lengths of time to the offspring with or without additional intraperitoneal injections of chemicals. In other instances, chemicals were delivered by intraperitoneal injection into pregnant mice and continued after delivery into the mouse pups. Chemicals, for example EGCG, were also delivered in drinking water starting before birth to the pregnant mouse mother and/or continuing and/or starting ad libitum to the mice after birth usually until at least 100 days of age or throughout life.
Chemicals given in distilled drinking water were green tea (as a source of EGCG and other catechins) (Lipton® 100% Natural Green Tea). […] The tea water was given alone and also in combination with acetaminophen 2 g/l in the same water.
In most cases nondiabetic mice were euthanized at 40-41 weeks of age. Statistical significances of the frequencies of diabetes in the mice receiving test treatments were compared to the rates of diabetes in mice receiving control treatments and were calculated with the Chi square test and with the Chi square test with Yate's correction.
In most of the studies, control solutions and the other treatments were administered to the mice until they were 100 days old. Mice without diabetes were euthanized at 40-41 weeks of age. Diabetic mice were euthanized when their blood glucose levels reached a level that met the criteria for diabetes.
Administration of water-soluble chemicals serving as controls to NOD mice: Control solutions were the vehicles in which chemicals were dissolved. Control solutions were usually administered to mouse litters from the same shipments as the litters receiving test chemicals and/or litters from the same parents as the litters receiving test chemicals and were administered during the same month and year as treatments to the litters receiving test treatments. Statistical probabilities between the rates of diabetes in the litters receiving test treatments were compared to litters simultaneously receiving control treatments.

Molecules are shown by their SMILES.

`COC1=C(OC)C(=O)C(C)=CC1=O` [CoQ0, 2,3-dimethoxy-5-methyl-1,4-benzoquinone, reference compound]: in the data set with mice, the toxicity result is on record as “toxicity to the mice”. Also, in the data set with NOD mouse, the “Diabetes (%)” value is listed as 83%, the “Final Blood Glucose (mean ± SE) diabetic” value turned out to be 649 ± 53 mg glucose/dl and the “Final Blood Glucose (mean ± SE) non-diabetic” value is given as 183 ± 28 mg glucose/dl.

The record behind these values is patent US20260053902A1, “COMPOSITIONS AND METHODS FOR REDUCING THE RATE OF TYPE 1 DIABETES” (Wisconsin Alumni Research Foundation, priority 2023, published 2026).
